Reference: US10287292B2, “CXCR7 antagonists” (CHEMOCENTRYX, INC., priority 2012, dated 2019)

Experiments:
CXCR7 receptor [1] = target: T1, CXCR7 receptor (Homo sapiens (Human), UniProt P25106); test: Buffer Binding Analysis: displacement of 125I-labeled SDF-1 from CXCR7; conditions: 125I SDF-1 displacement, buffer binding medium, MCF-7 and/or MDA-MB-435S CXCR7 transfected cells, 3 hr at 4° C.; read-out: Avg Bind IC50
Protocol: (§1) The compounds were combined with cells expressing the CXCR7 receptor (e.g., MCF cells or cells transfected to express CXCR7) in the presence of the 125 I-labeled SDF-1 chemokine as detailed in Determination of IC50 values. Reagents and Cells (see below). The ability of the compounds to displace the labeled chemokine from the CXCR7 receptor sites at multiple concentrations was then determined with the screening process.
Compounds that were deemed effective modulators were able to displace at least 50% of the SDF-1 from the CXCR7 receptor at concentrations at or below 15 micromolar (μM) but >2500 nM (+); and more preferably at concentrations from >500 nM to ≤2500 nM (++). At present, especially preferred compounds can displace at least 50% of the SDF-1 from the CXCR7 receptor at concentrations at or below 500 nM (+++). Exemplary compounds that met these criteria are reproduced in Table 1 and the Examples above. In Table 1, Avg Bind IC50 refers to the Buffer Binding Analysis described below, while Avg Ser IC50 refers to the Serum Binding Analysis described below. All compounds were prepared as described in the Examples above, or by related methods substituting readily available starting materials.
(§2) ^125I-labeled SDF-1 was purchased from Perkin-Elmer Life Sciences, Inc. (Boston, Mass.). The MCF-7 (adenocarcinoma; mammary gland) cell line was obtained from the American Type Culture Collection (ATCC, Manassas, Va.) or and was cultured in DMEM (Mediatech, Herndon, Va.) supplemented with 10% fetal bovine serum (FBS) (HyClone Logan, Utah) and bovine insulin (0.01 mg/mL) (Sigma. St. Louis, Mo.) at 37° C. in a humidified incubator at a 5% CO2/air mixture. CXCR7 transfected MDA-MB-435S were produced as described below. MDA-MB-435S human breast cancer line, was purchased from ATCC, and cultured in DMEM/10% FBS medium. The complete coding sequence of the gene encoding CXCR7 (a.k.a. CCXCKR2, hRDC1), was isolated from MCF-7 cells using μMACs mRNA isolation kit (Miltenyi Biotec, Auburn, Calif.). DNA contamination was removed by DNase digestion via RNeasy columns (Qiagen, Inc., Valencia, Calif.) and cDNA was generated using GeneAmp RNA PCR Core Kit (Applied Biosystems, Foster City. Calif.). PCR of cDNA samples was performed using Taq PCR Master Mix kit (Qiagen. Inc.) and hRDC1 primers harboring 5′ and 3′ Not I sites (hRDC1F 5′ […]-3, hRDC1R 5′-[…]-3′) Not I digested PCR product was ligated into Not I digested pcDNA3.1(+)(Invitrogen, Carlsbad, Calif.) and screened for orientation and sequence confirmed. Plasmid DNA was then isolated from overnight bacterial cultures by Maxiprep (Qiagen, Inc.). Plasmid DNA (10 μg) was added to MDA-MB-435s cells and cells were electroporated (0.22 kV, 960 uF) via Gene Pulser (Biorad laboratories, Hercules, Calif.). 48 hr post-electroporation, cells were transferred to selection medium (600 ug/ml G418).
(§3) Target compounds can be tested to determine their ability to bind with CXCR7 sites on MCF-7 and/or MDA-MB-435S CXCR7 transfected cells. Efficiency-maxim/zed radioligand binding using filtration protocols as described in Dairaghi D J, et al., HHV8-encoded vMIP-I selectively engages chemokine receptor CCR5. Agonist and antagonist profiles of viral chemokines., J. Biol. Chem. 1999 Jul. 30; 274(31): 21569-74 and Gosling J. et al., Cutting edge: identification of a novel chemokine receptor that binds dendritic cell-and T cell-active chemokines including ELC. SLC, and TECK., J. Immunol. 2000 Mar. 15; 164(6):2851-6 was used.
In these assays, MCF-7 and/or MDA-MB-435S cells are interrogated with the target compounds and the ability of these compounds to displace ^125I radiolabeled SDF-1 assessed using the protocol described in Dairaghi and Gosling. […]

CXCR7 receptor [2] = target: T1, CXCR7 receptor; test: Serum Binding Analysis: displacement of 125I-labeled SDF-1 from CXCR7 in 100% human serum; conditions: 125I SDF-1 displacement in 100% human serum, MCF-7 and/or MDA-MB-435S CXCR7 transfected cells, 3 hrs at 4° C.; read-out: Avg Ser IC50
Protocol: as §1
In Table 1, Avg Bind IC50 refers to the Buffer Binding Analysis described below, while Avg Ser IC50 refers to the Serum Binding Analysis described below. All compounds were prepared as described in the Examples above, or by related methods substituting readily available starting materials.
as §2
as §3, with “In order to more properly assess the binding efficacy of the compounds, radioligand binding assays were carried out in the presence of 100% human serum to more accurately reflect the in vivo environment. […] Target” for “Target”, “compounds were” for “compounds can be”, “Gosling J,” for “Gosling J.”, “dendritic cell- and” for “dendritic cell-and”, “including ELC,” for “including ELC.”, “and TECK,” for “and TECK.,”
In these assays, MCF-7 and/or MDA-MB-435S cells were interrogated with the target compounds and the ability of these compounds to displace 125 I radiolabeled SDF-1 was assessed using the protocol described in Dairaghi and Gosling. The target compounds were added to the plate to the indicated concentration followed by addition of cells and radiolabeled chemokine (125I SDF-1), both in the following medium (human AB serum with 10 mM HEPES added to stabilize at pH 7.4). All assays were then incubated for 3 hrs at 4° C. with gentle agitation.

T1 sequence (P25106 whole entry): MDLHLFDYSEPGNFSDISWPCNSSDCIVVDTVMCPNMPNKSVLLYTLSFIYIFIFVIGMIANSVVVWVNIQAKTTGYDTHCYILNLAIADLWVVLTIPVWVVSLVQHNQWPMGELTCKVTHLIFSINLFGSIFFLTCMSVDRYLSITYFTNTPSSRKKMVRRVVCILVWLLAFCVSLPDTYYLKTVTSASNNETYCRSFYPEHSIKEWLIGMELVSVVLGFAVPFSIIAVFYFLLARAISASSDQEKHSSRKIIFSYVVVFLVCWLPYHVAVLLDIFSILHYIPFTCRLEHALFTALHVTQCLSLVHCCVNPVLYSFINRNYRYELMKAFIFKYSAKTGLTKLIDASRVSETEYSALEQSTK

O=C(N[C@H]1CCN(c2nccn3cccc23)C1)c1ccn(-c2ccc(Cl)c(F)c2)n1 [Compound 1.114]
IC50 (CXCR7 receptor [1]): ≤ 500 nM | IC50 (CXCR7 receptor [2]): ≤ 500 nM

Cc1ccn2ccnc(N3CC[C@H](NC(=O)c4noc(-c5ccccc5)n4)C3)c12 [Compound 1.111]
IC50 (CXCR7 receptor [1]): ≤ 500 nM | IC50 (CXCR7 receptor [2]): 500 to 2500 nM

O=C(N[C@H]1CCN(c2nccn3cccc23)C1)c1csc(-c2ccc(F)cc2)n1 [Compound 1.096]
IC50 (CXCR7 receptor [1]): ≤ 500 nM | IC50 (CXCR7 receptor [2]): ≤ 500 nM

Cc1cc(Cl)ccc1-n1ccc(C(=O)N[C@H]2CCN(c3nccn4ccc(C)c34)C2)n1 [Compound 1.103]
IC50 (CXCR7 receptor [1]): ≤ 500 nM | IC50 (CXCR7 receptor [2]): 500 to 2500 nM

O=C(N[C@H]1CCN(c2nccn3cccc23)C1)c1noc(C2CCOCC2)n1 [Compound 1.082]
IC50 (CXCR7 receptor [1]): ≤ 500 nM | IC50 (CXCR7 receptor [2]): 500 to 2500 nM

Cc1ccccc1-n1ccc(C(=O)N[C@H]2CCN(c3nccn4ccc(C)c34)C2)n1 [Compound 1.109]
IC50 (CXCR7 receptor [1]): ≤ 500 nM | IC50 (CXCR7 receptor [2]): 500 to 2500 nM

Cc1ccn2ccnc(N3CC[C@H](NC(=O)c4csc(-c5ccccc5)n4)C3)c12 [Compound 1.105]
IC50 (CXCR7 receptor [1]): ≤ 500 nM | IC50 (CXCR7 receptor [2]): 500 to 2500 nM

O=C(N[C@H]1CCN(c2nccn3ccnc23)C1)c1ncn(-c2ccccc2)n1 [Compound 1.091]
IC50 (CXCR7 receptor [1]): ≤ 500 nM | IC50 (CXCR7 receptor [2]): ≤ 500 nM

Cc1ccn2ccnc(N3CC[C@H](NC(=O)c4ccn(-c5ccccc5CC#N)n4)C3)c12 [Compound 1.101]
IC50 (CXCR7 receptor [1]): ≤ 500 nM | IC50 (CXCR7 receptor [2]): 500 to 2500 nM

O=C(N[C@H]1CCN(c2nccn3cnnc23)C1)c1ncn(-c2ccccc2)n1 [Compound 1.127]
IC50 (CXCR7 receptor [1]): ≤ 500 nM | IC50 (CXCR7 receptor [2]): ≤ 500 nM

O=C(N[C@H]1CCN(c2nccn3cccc23)C1)c1ccn(-c2ccc(Cl)cn2)n1 [Compound 1.081]
IC50 (CXCR7 receptor [1]): ≤ 500 nM | IC50 (CXCR7 receptor [2]): 500 to 2500 nM

O=C(N[C@H]1CCN(c2nccn3ccnc23)C1)c1cnc(N2CCC(O)CC2)cn1 [Compound 1.075]
IC50 (CXCR7 receptor [1]): 500 to 2500 nM | IC50 (CXCR7 receptor [2]): 2500 to 15000 nM

Cc1ccn2ccnc(N3CC[C@H](NC(=O)c4ncn(-c5ccccc5)n4)C3)c12 [Compound 1.117]
IC50 (CXCR7 receptor [1]): ≤ 500 nM | IC50 (CXCR7 receptor [2]): ≤ 500 nM

Cc1ccn2ccnc(N3CC[C@H](NC(=O)c4ccn(-c5ccc(Cl)c(F)c5)n4)C3)c12 [Compound 1.100]
IC50 (CXCR7 receptor [1]): ≤ 500 nM | IC50 (CXCR7 receptor [2]): 2500 to 15000 nM

Cc1ccn2ccnc(N3CC[C@H](NC(=O)c4csc(-c5ccc(F)cc5)n4)C3)c12 [Compound 1.108]
IC50 (CXCR7 receptor [1]): ≤ 500 nM | IC50 (CXCR7 receptor [2]): 500 to 2500 nM

O=C(N[C@H]1CCN(c2nccn3cccc23)C1)c1ccn(-c2cccc(F)c2)n1 [Compound 1.113]
IC50 (CXCR7 receptor [1]): ≤ 500 nM | IC50 (CXCR7 receptor [2]): ≤ 500 nM

Cc1ccccc1-c1nc(C(=O)N[C@H]2CCN(c3nccn4cccc34)C2)co1 [Compound 1.080]
IC50 (CXCR7 receptor [1]): ≤ 500 nM | IC50 (CXCR7 receptor [2]): 500 to 2500 nM

O=C(N[C@H]1CCN(c2nccn3cnnc23)C1)c1ccn(C2CCOCC2)n1 [Compound 1.087]
IC50 (CXCR7 receptor [1]): 2500 to 15000 nM | IC50 (CXCR7 receptor [2]): 500 to 2500 nM

O=C(N[C@H]1CCN(c2nccn3cccc23)C1)c1coc(-c2ccc(F)cc2)n1 [Compound 1.095]
IC50 (CXCR7 receptor [1]): ≤ 500 nM | IC50 (CXCR7 receptor [2]): ≤ 500 nM

Cc1ccn2ccnc(N3CC[C@H](NC(=O)c4ncc(-c5ccccc5)cn4)C3)c12 [Compound 1.110]
IC50 (CXCR7 receptor [1]): ≤ 500 nM | IC50 (CXCR7 receptor [2]): 500 to 2500 nM

N#CCc1ccccc1-n1ccc(C(=O)N[C@H]2CCN(c3nccn4cccc34)C2)n1 [Compound 1.115]
IC50 (CXCR7 receptor [1]): ≤ 500 nM | IC50 (CXCR7 receptor [2]): ≤ 500 nM

O=C(N[C@H]1CCN(c2nccn3cccc23)C1)c1nnc(-c2ccccc2)[nH]1 [Compound 1.083]
IC50 (CXCR7 receptor [1]): ≤ 500 nM | IC50 (CXCR7 receptor [2]): 500 to 2500 nM

O=C(N[C@H]1CCN(c2nccn3cccc23)C1)c1noc(-c2ccccc2)n1 [Compound 1.120]
IC50 (CXCR7 receptor [1]): ≤ 500 nM | IC50 (CXCR7 receptor [2]): ≤ 500 nM

O=C(N[C@H]1CCN(c2nccn3cccc23)C1)c1ncn(-c2ccc(Cl)cc2)n1 [Compound 1.119]
IC50 (CXCR7 receptor [1]): ≤ 500 nM | IC50 (CXCR7 receptor [2]): 500 to 2500 nM

O=C(N[C@H]1CCN(c2nccn3cccc23)C1)c1ccn(-c2ccc(Cl)cc2)n1 [Compound 1.129]
IC50 (CXCR7 receptor [1]): ≤ 500 nM | IC50 (CXCR7 receptor [2]): ≤ 500 nM

Cc1ccc2nc(C(=O)N[C@H]3CCN(c4nccn5cccc45)C3)ncc2c1 [Compound 1.085]
IC50 (CXCR7 receptor [1]): ≤ 500 nM | IC50 (CXCR7 receptor [2]): ≤ 500 nM

O=C(N[C@H]1CCN(c2nccn3cccc23)C1)c1ccn(C2CCOCC2)n1 [Compound 1.088]
IC50 (CXCR7 receptor [1]): ≤ 500 nM | IC50 (CXCR7 receptor [2]): ≤ 500 nM

Cc1ccn2ccnc(N3CC[C@H](NC(=O)c4coc(-c5ccccc5)n4)C3)c12 [Compound 1.107]
IC50 (CXCR7 receptor [1]): ≤ 500 nM | IC50 (CXCR7 receptor [2]): 500 to 2500 nM

Cc1ccn2ccnc(N3CC[C@H](NC(=O)c4ccn(-c5cccc(F)c5)n4)C3)c12 [Compound 1.099]
IC50 (CXCR7 receptor [1]): ≤ 500 nM | IC50 (CXCR7 receptor [2]): ≤ 500 nM

O=C(N[C@H]1CCN(c2nccn3cccc23)C1)c1csc(N2CCCC2)n1 [Compound 1.038]
IC50 (CXCR7 receptor [2]): ≤ 500 nM

Cc1cn2cccc2c(N2CC[C@H](NC(=O)c3ccn(-c4ccc(F)cc4)n3)C2)n1 [Compound 1.041]
IC50 (CXCR7 receptor [2]): ≤ 500 nM

Cc1ccc(-n2cnc(C(=O)N[C@H]3CCN(c4nccn5ccnc45)C3)n2)cc1 [Compound 1.004]
IC50 (CXCR7 receptor [2]): 500 to 2500 nM

Cc1cn2cccc2c(N2CC[C@H](NC(=O)c3noc(-c4ccccc4)n3)C2)n1 [Compound 1.021]
IC50 (CXCR7 receptor [2]): ≤ 500 nM

CCc1cn2cccc2c(N2CC[C@H](NC(=O)c3ncn(-c4ccccc4)n3)C2)n1 [Compound 1.015]
IC50 (CXCR7 receptor [2]): ≤ 500 nM

Cc1ccc2nc(C(=O)N[C@H]3CCN(c4nccn5ccnc45)C3)ncc2c1 [Compound 1.048]
IC50 (CXCR7 receptor [2]): ≤ 500 nM

O=C(N[C@H]1CCN(c2nccn3cccc23)C1)c1cn(-c2ccccc2)cn1 [Compound 1.039]
IC50 (CXCR7 receptor [2]): ≤ 500 nM

Cc1ccccc1-c1nc(C(=O)N[C@H]2CCN(c3nccn4cccc34)C2)cs1 [Compound 1.046]
IC50 (CXCR7 receptor [2]): ≤ 500 nM

Cc1cn2cccc2c(N2CC[C@H](NC(=O)c3csc(N4CCC(O)CC4)n3)C2)n1 [Compound 1.037]
IC50 (CXCR7 receptor [2]): ≤ 500 nM

O=C(NC1(CO)CCN(c2nccn3cccc23)C1)c1ccn(-c2ccc(F)cc2)n1 (centres unmarked) [Compound 1.073]
IC50 (CXCR7 receptor [2]): ≤ 500 nM

Cc1ccccc1-n1ccc(C(=O)N[C@H]2CCN(c3nccn4cnnc34)C2)n1 [Compound 1.054]
IC50 (CXCR7 receptor [2]): ≤ 500 nM

O=C(N[C@H]1CCN(c2nccn3cccc23)C1)c1ncc(C2CCCC2)cn1 [Compound 1.028]
IC50 (CXCR7 receptor [2]): ≤ 500 nM

CC(C)c1cnc(C(=O)N[C@H]2CCN(c3nccn4cnnc34)C2)nc1 [Compound 1.061]
IC50 (CXCR7 receptor [2]): 500 to 2500 nM
